Patent US6355799B1, “Substituted benzene compounds, process for their preparation, and herbicidal and defoliant compositions containing them” (ISK Americas Incorporated, priority 1997, dated 2002)

Key:
Type in all cases: in vivo
[1] = test system: redroot pigweed (Amaranthus retroflexus, AMARE); assay: Pre-emerge test, greenhouse herbicide activity screening; conditions: pre-emerge, 14 days after application, rating scale 0-100
How it was run: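 Visual ratings on a 0-100 scale (0 no damage, 100 all plants dead) were taken at 14 days after treatment. Rates of 15-1000 g ai/ha in acetone, 187 l/ha, were sprayed onto soil one day after planting (pre-emerge) or onto 2-3 leaf plants with 0.25% v/v surfactant (post-emerge).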

[2] = test system: barnyardgrass (Echinochloa crus-galli, ECHCG); assay: as above; conditions: pre-emerge, 14 days after application, rating scale 0-100
How it was run: (§1)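 Herbicidal damage is scored 0 (none) to 100 (complete plant death) two weeks after a simulated field spray. Rates span 15–1000 g ai/ha, delivered in acetone at 187 l/ha. For post-emergence treatments, plants have 2–3 leaves and the spray carries 0.25% v/v non-ionic surfactant.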

[3] = test system: common ragweed (Ambrosia artemisizfolia L., AMBEL); assay: as above; conditions: pre-emerge, 14 days after application, rating scale 0-100
How it was run: as §1

[4] = test system: green foxtail (Setaria viridis, SETVI); assay: as above; conditions: pre-emerge, 14 days after application, rating scale 0-100
How it was run: as §1

[5] = test system: ivyleaf morningglory (Ipomoea hederacea, IPOHE); assay: as above; conditions: pre-emerge, 14 days after application, rating scale 0-100
How it was run: as §1

[6] = test system: johnsongrass (Sorghum halepense, SORHA); assay: as above; conditions: pre-emerge, 14 days after application, rating scale 0-100
How it was run: as §1

[7] = test system: lambsquarters (Chenopodium album, CHEAL); assay: as above; conditions: pre-emerge, 14 days after application, rating scale 0-100
How it was run: as §1

[8] = test system: large crabgrass (Digitaria sanguinalis, DIGSA); assay: as above; conditions: pre-emerge, 14 days after application, rating scale 0-100
How it was run: as §1

[9] = test system: sicklepod (Cassia obtusifolia, CASOB); assay: as above; conditions: pre-emerge, 14 days after application, rating scale 0-100
How it was run: as §1

[10] = test system: velvetleaf (Abutilon theophrasti, ABUTH); assay: as above; conditions: pre-emerge, 14 days after application, rating scale 0-100
How it was run: as §1

[11] = test system: field corn (Zea mays L., var. Dekalb 535, CORN); assay: Pre-emerge test, crop safety; conditions: pre-emerge, 14 days after application, rating scale 0-100
How it was run: (§2)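 Sandy loam pots; pre-emerge: sown 1 d pre-spray, surface-watered after, then bottom-watered. Post-emerge: sown 8–21 d before, 2–3 leaf stage, + 0.25% v/v NIS, bottom-watered. Acetone, 187 l/ha track spray, 15–1000 g ai/ha. 0–100 injury score, day 14.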

[12] = test system: upland rice (Oryza sp., var. Tebonnet, RICE); assay: Pre-emerge test, crop safety; conditions: pre-emerge, 14 days after application, rating scale 0-100
How it was run: as §2

[13] = test system: barnyardgrass (Echinochloa crus-galli, ECHCG); assay: Post-emerge test, greenhouse herbicide activity screening; conditions: post-emerge, 14 days after application, rating scale 0-100
How it was run: (§3)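 Plants grown in 10 cm pots of sandy loam mix received acetone-dissolved compounds through a moving flat-fan nozzle. Doses ranged from 15 to 1000 g ai/ha. Pre-emerge pots were seeded one day earlier, post-emerge pots 8–21 days earlier. Fourteen days on, each pot was graded 0–100 for damage.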

[14] = test system: green foxtail (Setaria viridis, SETVI); assay: as above; conditions: post-emerge, 14 days after application, rating scale 0-100
How it was run: as §3

[15] = test system: ivyleaf morningglory (Ipomoea hederacea, IPOHE); assay: as above; conditions: post-emerge, 14 days after application, rating scale 0-100
How it was run: as §3

[16] = test system: johnsongrass (Sorghum halepense, SORHA); assay: as above; conditions: post-emerge, 14 days after application, rating scale 0-100
How it was run: as §3

[17] = test system: lambsquarters (Chenopodium album, CHEAL); assay: as above; conditions: post-emerge, 14 days after application, rating scale 0-100
How it was run: as §3

[18] = test system: large crabgrass (Digitaria sanguinalis, DIGSA); assay: as above; conditions: post-emerge, 14 days after application, rating scale 0-100
How it was run: as §3

[19] = test system: redroot pigweed (Amaranthus retroflexus, AMARE); assay: as above; conditions: post-emerge, 14 days after application
How it was run: as §3

[20] = test system: sicklepod (Cassia obtusifolia, CASOB); assay: as above; conditions: post-emerge, 14 days after application, rating scale 0-100
How it was run: as §3

[21] = test system: velvetleaf (Abutilon theophrasti, ABUTH); assay: as above; conditions: post-emerge, 14 days after application, rating scale 0-100
How it was run: as §3

[22] = test system: field corn (Zea mays L., var. Dekalb 535, CORN); assay: Post-emerge test, crop safety; conditions: post-emerge, 14 days after application, rating scale 0-100
How it was run: as §1

[23] = test system: upland rice (Oryza sp., var. Tebonnet, RICE); assay: Post-emerge test, crop safety; conditions: post-emerge, 14 days after application, rating scale 0-100
How it was run: as §1

[24] = 63 g ai/ha, rating scale 0-100 (0 no damage, 100 complete death)
[25] = 250 g ai/ha, rating scale 0-100

## CCOC(=O)C(Cl)Cc1c(OC)c(Cl)cc(F)c1-n1nc(C(F)(F)F)n(C)c1=O (centres unmarked) [14-61]
[1]; 63 g ai/ha
  phytotoxicity rating AMARE: 30
[1]; 250 g ai/ha
  phytotoxicity rating AMARE: 95
[2]; 63 g ai/ha
  phytotoxicity rating ECHCG: 0
[2]; 250 g ai/ha
  phytotoxicity rating ECHCG: 0
[3]; 63 g ai/ha
  phytotoxicity rating AMBEL: 0
[3]; 250 g ai/ha
  phytotoxicity rating AMBEL: 0
[4]; 63 g ai/ha
  phytotoxicity rating SETVI: 0
[4]; 250 g ai/ha
  phytotoxicity rating SETVI: 60
[5]; 63 g ai/ha
  phytotoxicity rating IPOHE: 0
[5]; 250 g ai/ha
  phytotoxicity rating IPOHE: 20
[6]; 63 g ai/ha
  phytotoxicity rating SORHA: 0
[6]; 250 g ai/ha
  phytotoxicity rating SORHA: 20
[7]; 63 g ai/ha
  phytotoxicity rating CHEAL: 0
[7]; 250 g ai/ha
  phytotoxicity rating CHEAL: 80
[8]; 63 g ai/ha
  phytotoxicity rating DIGSA: 0
[8]; 250 g ai/ha
  phytotoxicity rating DIGSA: 40
[9]; 63 g ai/ha
  phytotoxicity rating CASOB: 0
[9]; 250 g ai/ha
  phytotoxicity rating CASOB: 0
[10]; 63 g ai/ha
  phytotoxicity rating ABUTH: 0
[10]; 250 g ai/ha
  phytotoxicity rating ABUTH: 40
[11]; 63 g ai/ha
  phytotoxicity rating CORN: 0
[11]; 250 g ai/ha
  phytotoxicity rating CORN: 0
[12]; 63 g ai/ha
  phytotoxicity rating RICE: 0
[12]; 250 g ai/ha
  phytotoxicity rating RICE: 0
[13]; 63 g ai/ha
  Post-emerge Herbicidal Activity ECHCG (phytotoxicity rating): 0
[13]; 250 g ai/ha
  Post-emerge Herbicidal Activity ECHCG (phytotoxicity rating): 60
[14]; 63 g ai/ha
  Post-emerge Herbicidal Activity SETVI (phytotoxicity rating): 0
[14]; 250 g ai/ha
  Post-emerge Herbicidal Activity SETVI (phytotoxicity rating): 20
[15]; 63 g ai/ha
  Post-emerge Herbicidal Activity IPOHE (phytotoxicity rating): 20
[15]; 250 g ai/ha
  Post-emerge Herbicidal Activity IPOHE (phytotoxicity rating): 50
[16]; 63 g ai/ha
  Post-emerge Herbicidal Activity SORHA (phytotoxicity rating): 0
[16]; 250 g ai/ha
  Post-emerge Herbicidal Activity SORHA (phytotoxicity rating): 20
[17]; 63 g ai/ha
  Post-emerge Herbicidal Activity CHEAL (phytotoxicity rating): 40
[17]; 250 g ai/ha
  Post-emerge Herbicidal Activity CHEAL (phytotoxicity rating): 75
[18]; 63 g ai/ha
  Post-emerge Herbicidal Activity DIGSA (phytotoxicity rating): 0
[18]; 250 g ai/ha
  Post-emerge Herbicidal Activity DIGSA (phytotoxicity rating): 70
[19]; [24]
  Post-emerge Herbicidal Activity AMARE (phytotoxicity rating): 20
[19]; [25]
  Post-emerge Herbicidal Activity AMARE (phytotoxicity rating): 60
[20]; 63 g ai/ha
  Post-emerge Herbicidal Activity CASOB (phytotoxicity rating): 0
[20]; 250 g ai/ha
  Post-emerge Herbicidal Activity CASOB (phytotoxicity rating): 30
[21]; 63 g ai/ha
  Post-emerge Herbicidal Activity ABUTH (phytotoxicity rating): 30
[21]; 250 g ai/ha
  Post-emerge Herbicidal Activity ABUTH (phytotoxicity rating): 60
[22]; 63 g ai/ha
  Post-emerge Herbicidal Activity CORN (crop damage rating): 0
[22]; 250 g ai/ha
  Post-emerge Herbicidal Activity CORN (crop damage rating): 70
[23]; 63 g ai/ha
  Post-emerge Herbicidal Activity RICE (crop damage rating): 0
[23]; 250 g ai/ha
  Post-emerge Herbicidal Activity RICE (crop damage rating): 30

## CCCOC(=O)C(Cl)Cc1c(OCC)c(Cl)cc(F)c1-n1c(=O)cc(C(F)(F)F)n(C)c1=O (centres unmarked) [14-65]
[1]; 63 g ai/ha
  phytotoxicity rating AMARE: 100
[1]; 250 g ai/ha
  phytotoxicity rating AMARE: 100
[2]; 63 g ai/ha
  phytotoxicity rating ECHCG: 0
[2]; 250 g ai/ha
  phytotoxicity rating ECHCG: 80
[3]; 63 g ai/ha
  phytotoxicity rating AMBEL: 100
[3]; 250 g ai/ha
  phytotoxicity rating AMBEL: 70
[4]; 63 g ai/ha
  phytotoxicity rating SETVI: 20
[4]; 250 g ai/ha
  phytotoxicity rating SETVI: 90
[5]; 63 g ai/ha
  phytotoxicity rating IPOHE: 40
[5]; 250 g ai/ha
  phytotoxicity rating IPOHE: 70
[6]; 63 g ai/ha
  phytotoxicity rating SORHA: 20
[6]; 250 g ai/ha
  phytotoxicity rating SORHA: 20
[7]; 63 g ai/ha
  phytotoxicity rating CHEAL: 60
[7]; 250 g ai/ha
  phytotoxicity rating CHEAL: 100
[8]; 63 g ai/ha
  phytotoxicity rating DIGSA: 90
[8]; 250 g ai/ha
  phytotoxicity rating DIGSA: 100
[9]; 63 g ai/ha
  phytotoxicity rating CASOB: 40
[9]; 250 g ai/ha
  phytotoxicity rating CASOB: 80
[10]; 63 g ai/ha
  phytotoxicity rating ABUTH: 90
[10]; 250 g ai/ha
  phytotoxicity rating ABUTH: 100
[11]; 63 g ai/ha
  phytotoxicity rating CORN: 0
[11]; 250 g ai/ha
  phytotoxicity rating CORN: 0
[12]; 63 g ai/ha
  phytotoxicity rating RICE: 0
[12]; 250 g ai/ha
  phytotoxicity rating RICE: 0
[13]; 63 g ai/ha
  Post-emerge Herbicidal Activity ECHCG (phytotoxicity rating): 100
[13]; 250 g ai/ha
  Post-emerge Herbicidal Activity ECHCG (phytotoxicity rating): 100
[14]; 63 g ai/ha
  Post-emerge Herbicidal Activity SETVI (phytotoxicity rating): 100
[14]; 250 g ai/ha
  Post-emerge Herbicidal Activity SETVI (phytotoxicity rating): 100
[15]; 63 g ai/ha
  Post-emerge Herbicidal Activity IPOHE (phytotoxicity rating): 50
[15]; 250 g ai/ha
  Post-emerge Herbicidal Activity IPOHE (phytotoxicity rating): 70
[16]; 63 g ai/ha
  Post-emerge Herbicidal Activity SORHA (phytotoxicity rating): 30
[16]; 250 g ai/ha
  Post-emerge Herbicidal Activity SORHA (phytotoxicity rating): 60
[17]; 63 g ai/ha
  Post-emerge Herbicidal Activity CHEAL (phytotoxicity rating): 90
[17]; 250 g ai/ha
  Post-emerge Herbicidal Activity CHEAL (phytotoxicity rating): 100
[18]; 63 g ai/ha
  Post-emerge Herbicidal Activity DIGSA (phytotoxicity rating): 99
[18]; 250 g ai/ha
  Post-emerge Herbicidal Activity DIGSA (phytotoxicity rating): 100
[19]; [24]
  Post-emerge Herbicidal Activity AMARE (phytotoxicity rating): 100
[19]; [25]
  Post-emerge Herbicidal Activity AMARE (phytotoxicity rating): 100
[20]; 63 g ai/ha
  Post-emerge Herbicidal Activity CASOB (phytotoxicity rating): 90
[20]; 250 g ai/ha
  Post-emerge Herbicidal Activity CASOB (phytotoxicity rating): 100
[21]; 63 g ai/ha
  Post-emerge Herbicidal Activity ABUTH (phytotoxicity rating): 100
[21]; 250 g ai/ha
  Post-emerge Herbicidal Activity ABUTH (phytotoxicity rating): 100
[22]; 63 g ai/ha
  Post-emerge Herbicidal Activity CORN (crop damage rating): 0
[22]; 250 g ai/ha
  Post-emerge Herbicidal Activity CORN (crop damage rating): 50
[23]; 63 g ai/ha
  Post-emerge Herbicidal Activity RICE (crop damage rating): 0
[23]; 250 g ai/ha
  Post-emerge Herbicidal Activity RICE (crop damage rating): 10
